One experiment has as its system 3T3 cells. The experiment in a line: MTT cell proliferation assay, 3T3 cells. The experiment is classed as cell-based, mouse. The following applies: Mus musculus, NIH3T3; 3T3 fibroblast cells; incubation approximately 64-72 hours. Here is the method: (§1) The MTT cell proliferation assay was used to study the cytotoxic properties of the compounds. The assay was performed according to the method described by Roche Molecular Biochemicals, with minor modifications. The assay is based on the cleavage of the tetrazolium salt, MTT, in the presence of an electron-coupling reagent. The water-insoluble formazan salt produced must be solubilized in an additional step. Cells grown in a 96-well tissue culture plate were incubated with the MTT solution for approximately 4 hours. After this incubation period, a water-insoluble formazan dye formed. After solubilization, the formazan dye was quantitated using a scanning multi-well spectrophotometer (ELISA reader). […] The cells were seeded at 5,000-10,000 cells in each well of 96-well plate in 100 μL of fresh culture medium and were allowed to attach overnight. The stock solutions of the compounds were diluted in 100 μL cell culture medium to obtain eight concentrations of each test compound, ranging from 1 nM to 30 μM. […] All optical densities were measured at 490 nm using a Vmax Kinetic Microplate Reader (Molecular Devices). In most cases, the assay was performed in duplicate and the results were presented as a mean percent inhibition to the negative control+SE. The following formula was used to calculate the percent of inhibition: Inhibition (%)=(1−(ODo/OD))×100.
(§2) The compounds were tested against MS751, Z138 and 3T3 cells. The MS751 cell line is derived from a metastasis to lymph node of human cervix from a patient diagnosed with squameous cell carcinoma of the cervix. The Z138 cell line is a mature B-cell acute lymphoblastic leukemia cell line derived from a patient with chronic lumphocytic leukemia. 3T3 cells are standard fibroblast cells; they were originally isolated from Swiss mouse embryo tissue.
A general note: Formazan colour is commonly taken as a measure of viable cells.

In the next experiment the test system is Z138 cells. The experiment is described as follows: MTT cell proliferation assay, Z138 cells. The experiment is classed as cell-based, human. The following applies: Homo sapiens, Z-138, incubation approximately 64-72 hours. Here is the method: as §1, §2
Another experiment has as its system MS751 cells. The experiment in a line: MTT cell proliferation assay, MS751 cells. The experiment is classed as cell-based, human. The following applies: Homo sapiens, incubation approximately 64-72 hours, read-out: MTT Assay IC50 MS 751. Here is the method:
as §1, §2

Some results are limits rather than exact numbers.

Broadly, the IC50 is the point on the concentration scale where inhibition reaches its midpoint.

For the molecule `Nc1ccc([C@H]2C[C@@H]2C(=O)NCc2cc3cc(-c4ccc(C(=O)N5CCNCC5)cc4)cc(-c4ccc(F)cc4)c3o2)cn1` (stereo in doubt) [Compound K027, (1S,2S)-2-(6-aminopyridin-3-yl)-N—((7-(4-fluorophenyl)-5-(4-(piperazine-1-carbonyl)phenyl)benzofuran-2-yl)methyl)cyclopropanecarboxamide], the IC50 is greater than 10 µM in the experiment on 3T3 cells and less than 1 µM in the experiment with Z138 cells.
With `Nc1ccc(C2CC2C(=O)NCCCOc2cc(-c3ccc(C(=O)N4CCC(F)(F)CC4)cc3)cc(C(F)(F)F)c2)cn1` (centres unmarked) [Compound K002, 2-(6-aminopyridin-3-yl)-N—(3-(4′-(4,4-difluoropiperidine-1-carbonyl)-5-(trifluoromethyl)biphenyl-3-yloxy)propyl)cyclopropanecarboxamide], the 50% inhibitory concentration (IC50) with MS751 cells was less than 1 µM; in the experiment on 3T3 cells, 1 to 5 µM; in the experiment on Z138 cells, less than 1 µM.
With `Nc1ccc(C2CC2C(=O)NCCOc2ccc(-c3ccc(C(=O)N4CCC(F)(F)CC4)cc3)cc2-c2ccc(F)cc2F)cn1` (centres unmarked) [Compound K003, 2-(6-aminopyridin-3-yl)-N—(2-(3-(2,4-difluorophenyl)-4′-(4,4-difluoropiperidine-1-carbonyl)biphenyl-4-yloxy)ethyl)cyclopropanecarboxamide], the IC50 was less than 1 µM with MS751 cells, 5 to 10 µM with 3T3 cells and less than 1 µM with Z138 cells.
On to `Nc1ccc(C2CC2C(=O)NCc2cc3cc(-c4ccc(C(=O)N5CCC(F)(F)CC5)cc4F)cc(-c4ccc(F)cc4)c3o2)cn1` (centres unmarked) [Compound K004, 2-(6-aminopyridin-3-yl)-N—((5-(4-(4,4-difluoropiperidine-1-carbonyl)-2-fluorophenyl)-7-(4-fluorophenyl)benzofuran-2-yl)methyl)cyclopropanecarboxamide], for which the results for the concentration for half-maximal inhibition (IC50) in the experiment with MS751 cells, in the experiment with 3T3 cells and in the experiment on Z138 cells were less than 1 µM, greater than 10 µM and less than 1 µM, respectively.
Regarding `Nc1ccc([C@H]2C[C@@H]2C(=O)NCCCOc2cc(-c3ccc(C(=O)N4CCC(F)(F)CC4)cc3)cc(C(F)(F)F)c2)cn1` [Compound K005, (1S,2S)-2-(6-aminopyridin-3-yl)-N—(3-(4′-(4,4-difluoropiperidine-1-carbonyl)-5-(trifluoromethyl)biphenyl-3-yloxy)propyl)cyclopropanecarboxamide], the IC50 in the experiment with MS751 cells, in the experiment with 3T3 cells and with Z138 cells was less than 1 µM in each case.
On to `Nc1ccc([C@@H]2C[C@H]2C(=O)NCCCOc2cc(-c3ccc(C(=O)N4CCC(F)(F)CC4)cc3)cc(C(F)(F)F)c2)cn1` [Compound K006, (1R,2R)-2-(6-aminopyridin-3-yl)-N—(3-(4′-(4,4-difluoropiperidine-1-carbonyl)-5-(trifluoromethyl)biphenyl-3-yloxy)propyl)cyclopropanecarboxamide], for which the IC50 in the experiment with MS751 cells was less than 1 µM; in the experiment on 3T3 cells it was 1 to 5 µM; with Z138 cells, less than 1 µM.
For the molecule `Nc1ccc([C@H]2C[C@@H]2C(=O)NCc2cc3cc(-c4ccc(C(=O)N5CCC(F)(F)CC5)cc4)cc(C(F)(F)F)c3o2)cn1` [Compound K007, (1S,2S)-2-(6-aminopyridin-3-yl)-N—((5-(4-(4,4-difluoropiperidine-1-carbonyl)phenyl)-7-(trifluoromethyl)benzofuran-2-yl)methyl)cyclopropanecarboxamide], the results for the IC50 in the experiment with MS751 cells, in the experiment with 3T3 cells and with Z138 cells were 1 to 5 µM, greater than 10 µM and 1 to 5 µM, respectively.
As to `Nc1ccc([C@@H]2C[C@H]2C(=O)NCc2cc3cc(-c4ccc(C(=O)N5CCC(F)(F)CC5)cc4)cc(C(F)(F)F)c3o2)cn1` [Compound K008, (1R,2R)-2-(6-Aminopyridin-3-yl)-N—((5-(4-(4,4-difluoropiperidine-1-carbonyl)phenyl)-7-(trifluoromethyl)benzofuran-2-yl)methyl)cyclopropanecarboxamide], the IC50 in the experiment on MS751 cells is greater than 10 µM; with 3T3 cells, greater than 10 µM; in the experiment with Z138 cells, 1 to 5 µM.
For the molecule `Nc1ccc(C2CC2C(=O)NCc2ccc(-c3ccc(-c4ccc(C(=O)N5CCC(F)(F)CC5)cn4)cc3C(F)(F)F)o2)cn1` (centres unmarked) [Compound K009, 2-(6-aminopyridin-3-yl)-N—((5-(4-(5-(4,4-difluoropiperidine-1-carbonyl)pyridin-2-yl)-2-(trifluoromethyl)phenyl)furan-2-yl)methyl)cyclopropanecarboxamide], the figures for the IC50 in the experiment on MS751 cells, with 3T3 cells and in the experiment with Z138 cells were less than 1 µM, 5 to 10 µM and less than 1 µM, respectively.
For the molecule `Nc1ccc([C@H]2C[C@@H]2C(=O)NCc2cc3cc(-c4ccc(C(=O)N5CCC(F)(F)CC5)cc4)cc(-c4ccc(F)cc4F)c3o2)cn1` [Compound K010, (1S,2S)-2-(6-aminopyridin-3-yl)-N—((7-(2,4-difluorophenyl)-5-(4-(4,4-difluoropiperidine-1-carbonyl)phenyl)benzofuran-2-yl)methyl)cyclopropanecarboxamide], the 50% inhibitory concentration (IC50) is less than 1 µM in the experiment with MS751 cells, 1 to 5 µM with 3T3 cells and less than 1 µM in the experiment on Z138 cells.
Turning to `Nc1ccc([C@H]2C[C@@H]2C(=O)NCc2cc3cc(-c4ccc(C(=O)N5CCC(F)(F)CC5)cc4)cc(-c4ccc(F)cc4)c3o2)cn1` [Compound K011, (1S,2S)-2-(6-aminopyridin-3-yl)-N—((5-(4-(4,4-difluoropiperidine-1-carbonyl)phenyl)-7-(4-fluorophenyl)benzofuran-2-yl)methyl)cyclopropanecarboxamide], the IC50 with MS751 cells was less than 1 µM; in the experiment on 3T3 cells, greater than 10 µM; in the experiment with Z138 cells, less than 1 µM.
Turning to `Nc1ccc([C@H]2C[C@@H]2C(=O)NCc2cc3cc(-c4ccc(C(=O)N5CCC(F)(F)CC5)cn4)cc(-c4ccc(F)cc4)c3o2)cn1` [Compound K012, (1S,2S)-2-(6-aminopyridin-3-yl)-N—((5-(5-(4,4-difluoropiperidine-1-carbonyl)pyridin-2-yl)-7-(4-fluorophenyl)benzofuran-2-yl)methyl)cyclopropanecarboxamide], the IC50 was less than 1 µM in the experiment with MS751 cells, 1 to 5 µM in the experiment with 3T3 cells and less than 1 µM in the experiment with Z138 cells.
Consider `Nc1ccc([C@H]2C[C@@H]2C(=O)NCc2cc3cc(-c4ccc(C(=S)N5CCC(F)(F)CC5)cc4)cc(-c4ccc(F)cc4)c3o2)cn1` [Compound K013, (1S,2S)-2-(6-aminopyridin-3-yl)-N—((5-(4-(4,4-difluoropiperidine-1-carbonothioyl)phenyl)-7-(4-fluorophenyl)benzofuran-2-yl)methyl)cyclopropanecarboxamide], for which the figures for the IC50 in the experiment with MS751 cells, in the experiment on 3T3 cells and in the experiment on Z138 cells were less than 1 µM, 1 to 5 µM and less than 1 µM, respectively.
`Nc1ccc([C@H]2C[C@@H]2C(=O)NCc2cc3cc(-c4ccc(C(=O)N5CCC(F)(F)CC5)cc4)cc(-c4cccc(F)c4)c3o2)cn1` [Compound K014, (1S,2S)-2-(6-aminopyridin-3-yl)-N—((5-(4-(4,4-difluoropiperidine-1-carbonyl)phenyl)-7-(3-fluorophenyl)benzofuran-2-yl)methyl)cyclopropanecarboxamide]: the IC50 in the experiment with MS751 cells was less than 1 µM; with 3T3 cells, 1 to 5 µM; in the experiment on Z138 cells, less than 1 µM.
As to `Nc1ccc([C@H]2C[C@@H]2C(=O)NCc2cc3cc(-c4ccc(C(=O)N5CCC(F)(F)CC5)cc4)cc(-c4ccc(F)cc4)c3s2)cn1` [Compound K015, (1S,2S)-2-(6-aminopyridin-3-yl)-N—((5-(4-(4,4-difluoropiperidine-1-carbonyl)phenyl)-7-(4-fluorophenyl)benzo[b]thiophen-2-yl)methyl)cyclopropanecarboxamide], the half-maximal inhibitory concentration (IC50) is 1 to 5 µM with MS751 cells, greater than 10 µM in the experiment on 3T3 cells and 1 to 5 µM with Z138 cells.
As to `Nc1ccc([C@H]2C[C@@H]2C(=O)NCc2cc3cc(-c4ccc(C(=O)N5CC(Cl)C5)cc4)cc(-c4ccc(F)cc4)c3o2)cn1` [Compound K016, (1S,2S)-2-(6-aminopyridin-3-yl)-N—((5-(4-(3-chloroazetidine-1-carbonyl)phenyl)-7-(4-fluorophenyl)benzofuran-2-yl)methyl)cyclopropanecarboxamide], the IC50 in the experiment with MS751 cells was less than 1 µM; with 3T3 cells, 1 to 5 µM; in the experiment with Z138 cells it was less than 1 µM.
For the molecule `Nc1ccc([C@H]2C[C@@H]2C(=O)NCc2cc3cc(-c4ccc(C(=O)N5CCC(F)(F)C5)cc4)cc(-c4ccc(F)cc4)c3o2)cn1` [Compound K017, (1S,2S)-2-(6-aminopyridin-3-yl)-N—((5-(4-(3,3-difluoropyrrolidine-1-carbonyl)phenyl)-7-(4-fluorophenyl)benzofuran-2-yl)methyl)cyclopropanecarboxamide], the results for the IC50 with MS751 cells, with 3T3 cells and in the experiment with Z138 cells were less than 1 µM, 1 to 5 µM and less than 1 µM, respectively.
Take `Nc1ccc([C@H]2C[C@@H]2C(=O)NCc2cc3cc(-c4ccc(C(=O)N5CC(F)(F)C5)cc4)cc(-c4ccc(F)cc4)c3o2)cn1` [Compound K018, (1S,2S)-2-(6-aminopyridin-3-yl)-N—((5-(4-(3,3-difluoroazetidine-1-carbonyl)phenyl)-7-(4-fluorophenyl)benzofuran-2-yl)methyl)cyclopropanecarboxamide]: the values for the IC50 in the experiment with MS751 cells, in the experiment on 3T3 cells and in the experiment with Z138 cells were less than 1 µM, 1 to 5 µM and less than 1 µM, respectively.

The values are drawn from patent US20180244660A1, “CYCLOPROPYLDERIVATIVES AND THEIR USE AS KINASE INHIBITORS” (Karyopharm Therapeutics Inc., priority 2015, published 2018).
